The values that follow come from patent US9029359B2, “Heteroaryl Btk inhibitors” (Biogen Idec MA, Inc., priority 2009, dated 2015).

The target in the test is T1, BTK (Homo sapiens, UniProt Q06187).
T1 construct: purchased Upstate 14-552
Kind of test: In vitro BTK kinase assay: BTK-POLYGAT-LS ASSAY. The class given is biochemical. Particulars: ATP 10 uM. A digest of the protocol:
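BTK phosphorylation of polyGAT (100 nM final) with ATP at 10 μM final, 10 mM Tris-HCl pH 7.5 kinase buffer, quenched by EDTA after 30 min. Potency given as IC50.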

Structures are written as SMILES. Where only a bound is given, the exact number is not on record here.

T1 sequence (Q06187 whole entry): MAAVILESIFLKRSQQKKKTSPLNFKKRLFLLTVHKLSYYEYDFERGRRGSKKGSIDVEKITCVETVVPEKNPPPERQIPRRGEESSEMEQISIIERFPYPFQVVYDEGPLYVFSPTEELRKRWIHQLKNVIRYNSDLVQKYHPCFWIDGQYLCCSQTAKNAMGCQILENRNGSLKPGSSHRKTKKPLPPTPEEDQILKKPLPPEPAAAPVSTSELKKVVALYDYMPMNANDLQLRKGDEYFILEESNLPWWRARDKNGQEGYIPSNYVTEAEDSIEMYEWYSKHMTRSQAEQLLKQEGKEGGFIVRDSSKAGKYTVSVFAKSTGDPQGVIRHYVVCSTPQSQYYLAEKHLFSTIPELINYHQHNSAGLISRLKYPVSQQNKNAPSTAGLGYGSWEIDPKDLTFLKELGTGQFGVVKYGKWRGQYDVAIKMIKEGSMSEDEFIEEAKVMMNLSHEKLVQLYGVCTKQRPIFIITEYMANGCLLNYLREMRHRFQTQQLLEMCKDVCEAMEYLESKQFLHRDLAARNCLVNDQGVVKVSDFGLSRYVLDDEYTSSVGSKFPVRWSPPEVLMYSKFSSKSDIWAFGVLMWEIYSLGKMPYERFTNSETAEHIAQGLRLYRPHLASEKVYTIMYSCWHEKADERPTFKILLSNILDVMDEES

In general, IC50 refers to the concentration at which inhibition is half-maximal. A lower IC50 goes with higher potency. For the compound `CC(C)[C@@H](Nc1ccccc1)C(=O)N[C@@H]1CCCN(c2ncnc3[nH]ccc23)C1` [Example 103, (R)—N—((R)-1-(7H-pyrrolo[2,3-d]pyrimidin-4-yl)piperidin-3-yl)-3-methyl-2-(phenylamino)butanamide], the IC50 is 100 to 999 nM.

On to `O=C(N[C@@H]1CCCN(c2ncnc3[nH]ccc23)C1)[C@@H](Cc1ccccc1)Nc1ccccc1` [Example 104, (R)—N—((R)-1-(7H-pyrrolo[2,3-d]pyrimidin-4-yl)piperidin-3-yl)-3-phenyl-2-(phenylamino)propanamide], for which the IC50 was 1000 to 10000 nM.

As to `CC(C)C[C@@H](Nc1ccccc1)C(=O)N[C@@H]1CCCN(c2ncnc3[nH]ccc23)C1` [Example 105, (R)—N—((R)-1-(7H-pyrrolo[2,3-d]pyrimidin-4-yl)piperidin-3-yl)-4-methyl-2-(phenylamino)pentanamide], the IC50 was 1000 to 10000 nM.

In turn, `O=C(N[C@@H]1CCCN(c2ncnc3[nH]ccc23)C1)[C@H](Nc1ccccc1)c1ccccc1` [Example 106, (R)—N—((R)-1-(7H-pyrrolo[2,3-d]pyrimidin-4-yl)piperidin-3-yl)-2-phenyl-2-(phenylamino)acetamide] came in with an IC50 greater than 10000 nM.

For `O=C(N[C@@H]1CCCN(c2ncnc3[nH]ccc23)C1)[C@H](Nc1ccccc1)C1CC1` [Example 107, (R)—N—((R)-1-(7H-pyrrolo[2,3-d]pyrimidin-4-yl)piperidin-3-yl)-2-cyclopropyl-2-(phenylamino)acetamide], the IC50 is less than 100 nM.

Regarding `CC(C)(C)[C@@H](Nc1ccccc1)C(=O)N[C@@H]1CCCN(c2ncnc3[nH]ccc23)C1` [Example 108, (R)—N—((R)-1-(7H-pyrrolo[2,3-d]pyrimidin-4-yl)piperidin-3-yl)-3,3-dimethyl-2-(phenylamino)butanamide], the IC50 lay within 100 to 999 nM.

On to `O=C(N[C@@H]1CCCN(c2ncnc3[nH]ccc23)C1)[C@H](Nc1ccccc1)C1CCCCC1` [Example 109, (R)—N—((R)-1-(7H-pyrrolo[2,3-d]pyrimidin-4-yl)piperidin-3-yl)-2-cyclohexyl-2-(phenylamino)acetamide], for which the half-maximal inhibitory concentration (IC50) lay within 1000 to 10000 nM.

As for `C[C@@H](O)[C@@H](Nc1ccccc1)C(=O)N[C@@H]1CCCN(c2ncnc3[nH]ccc23)C1` [Example 110, (2R,3R)—N—((R)-1-(7H-pyrrolo[2,3-d]pyrimidin-4-yl)piperidin-3-yl)-3-hydroxy-2-(phenylamino)butanamide], the IC50 was in the range of 100 to 999 nM.

For the compound `C[C@H](O)[C@@H](Nc1ccccc1)C(=O)N[C@@H]1CCCN(c2ncnc3[nH]ccc23)C1` [Example 111, (2R,3S)—N—((R)-1-(7H-pyrrolo[2,3-d]pyrimidin-4-yl)piperidin-3-yl)-3-hydroxy-2-(phenylamino)butanamide], the IC50 was 100 to 999 nM.

With `CC(C)[C@@H](Nc1cccc(Cl)c1)C(=O)N[C@@H]1CCCN(c2ncnc3[nH]ccc23)C1` [Example 112, (R)—N—((R)-1-(7H-pyrrolo[2,3-d]pyrimidin-4-yl)piperidin-3-yl)-2-(3-chlorophenylamino)-3-methylbutanamide], the IC50 was less than 100 nM.

`CC[C@@H](Nc1ccccc1)C(=O)N[C@@H]1CCCN(c2ncnc3[nH]ccc23)C1` [Example 114, (R)—N—((R)-1-(7H-pyrrolo[2,3-d]pyrimidin-4-yl)piperidin-3-yl)-2-(phenylamino)butanamide] came in with an IC50 of less than 100 nM.

Regarding `CC[C@H](C)[C@@H](Nc1ccccc1)C(=O)N[C@@H]1CCCN(c2ncnc3[nH]ccc23)C1` [Example 115, (2R,3S)—N—((R)-1-(7H-pyrrolo[2,3-d]pyrimidin-4-yl)piperidin-3-yl)-3-methyl-2-(phenylamino)pentanamide], the IC50 is 100 to 999 nM.

`CS(=O)(=O)CC[C@@H](Nc1ccccc1)C(=O)N[C@@H]1CCCN(c2ncnc3[nH]ccc23)C1` [Example 116, (R)—N—((R)-1-(7H-pyrrolo[2,3-d]pyrimidin-4-yl)piperidin-3-yl)-4-(methylsulfonyl)-2-(phenylamino)butanamide] had an IC50 of 1000 to 10000 nM.

With `CC[C@@H](C)[C@@H](Nc1ccccc1)C(=O)N[C@@H]1CCCN(c2ncnc3[nH]ccc23)C1` [Example 117, (2R,3R)—N—((R)-1-(7H-pyrrolo[2,3-d]pyrimidin-4-yl)piperidin-3-yl)-3-methyl-2-(phenylamino)pentanamide], the IC50 fell in the range of 100 to 999 nM.

As to `O=C(N[C@@H]1CCCN(c2ncnc3[nH]ccc23)C1)[C@H](Nc1cccc(Cl)c1)C1CC1` [Example 119, (R)—N—((R)-1-(7H-pyrrolo[2,3-d]pyrimidin-4-yl)piperidin-3-yl)-2-(3-chlorophenylamino)-2-cyclopropylacetamide], the IC50 is less than 100 nM.

Compound `O=C(N[C@@H]1CCCN(c2ncnc3[nH]ccc23)C1)[C@H](Nc1cc(F)cc(F)c1)C1CC1` [Example 120, (R)—N—((R)-1-(7H-pyrrolo[2,3-d]pyrimidin-4-yl)piperidin-3-yl)-2-cyclopropyl-2-(3,5-difluorophenylamino)acetamide] displayed an IC50 of less than 100 nM.

Turning to `O=C(N[C@@H]1CCCN(c2ncnc3[nH]ccc23)C1)[C@H](Nc1cc(F)cc(C(F)(F)F)c1)C1CC1` [Example 121, (R)—N—((R)-1-(7H-pyrrolo[2,3-d]pyrimidin-4-yl)piperidin-3-yl)-2-cyclopropyl-2-(3-fluoro-5-(trifluoromethyl)phenylamino)acetamide], the IC50 is less than 100 nM.

`CC(C)CC[C@@H](Nc1ccccc1)C(=O)N[C@@H]1CCCN(c2ncnc3[nH]ccc23)C1` [Example 122, (R)—N—((R)-1-(7H-pyrrolo[2,3-d]pyrimidin-4-yl)piperidin-3-yl)-5-methyl-2-(phenylamino)hexanamide] displayed an IC50 of 1000 to 10000 nM.

`O=C(N[C@@H]1CCCN(c2ncnc3[nH]ccc23)C1)C(CC(F)(F)F)Nc1ccccc1` (stereo partly drawn) [Example 123, (N—((R)-1-(7H-pyrrolo[2,3-d]pyrimidin-4-yl)piperidin-3-yl)-4,4,4-trifluoro-2-(phenylamino)butanamide)] showed an IC50 of 1000 to 10000 nM.

Regarding `CC(C)(C)[C@@H](Nc1cc(F)cc(Cl)c1)C(=O)N[C@@H]1CCCN(c2ncnc3[nH]ccc23)C1` [Example 124, (R)—N—((R)-1-(7H-pyrrolo[2,3-d]pyrimidin-4-yl)piperidin-3-yl)-2-(3-chloro-5-fluorophenylamino)-3,3-dimethylbutanamide], the IC50 was less than 100 nM.

Regarding `O=C(N[C@@H]1CCCN(c2ncnc3[nH]ccc23)C1)C1(Nc2ccccc2)CC1` [Example 126, (R)—N-(1-(7H-pyrrolo[2,3-d]pyrimidin-4-yl)piperidin-3-yl)-1-(phenylamino)cyclopropanecarboxamide], the IC50 lay within 1000 to 10000 nM.

For the compound `O=C(N[C@@H]1CCCN(c2ncnc3[nH]ccc23)C1)C1(Nc2ccccc2)CCCC1` [Example 127, (R)—N-(1-(7H-pyrrolo[2,3-d]pyrimidin-4-yl)piperidin-3-yl)-1-(phenylamino)cyclopentanecarboxamide], the IC50 was 1000 to 10000 nM.

`CC(C)(Nc1ccccc1)C(=O)N[C@@H]1CCCN(c2ncnc3[nH]ccc23)C1` [Example 128, (R)—N-(1-(7H-pyrrolo[2,3-d]pyrimidin-4-yl)piperidin-3-yl)-2-methyl-2-(phenylamino)propanamide] displayed an IC50 of 1000 to 10000 nM.

`CC[C@@H](Nc1cc(F)cc(Cl)c1)C(=O)N[C@@H]1CCCN(c2ncnc3[nH]ncc23)C1` [Example 129, (R)—N—((R)-1-(1H-pyrazolo[3,4-d]pyrimidin-4-yl)piperidin-3-yl)-2-(3-chloro-5-fluorophenylamino)butanamide] showed an IC50 of less than 100 nM.

Consider `CC[C@@H](Nc1cc(Cl)cc(Cl)c1)C(=O)N[C@@H]1CCCN(c2ncnc3[nH]ncc23)C1` [Example 130, (R)—N—((R)-1-(1H-pyrazolo[3,4-d]pyrimidin-4-yl)piperidin-3-yl)-2-(3,5-dichlorophenylamino)butanamide], for which the IC50 was less than 100 nM.

`CC[C@@H](Nc1cccc(Cl)c1)C(=O)N[C@@H]1CCCN(c2ncnc3[nH]ncc23)C1` [Example 131, (R)—N—((R)-1-(1H-pyrazolo[3,4-d]pyrimidin-4-yl)piperidin-3-yl)-2-(3-chlorophenylamino)butanamide] came in with an IC50 of less than 100 nM.

In turn, `O=C(N[C@@H]1CCCN(c2ncnc3[nH]ccc23)C1)[C@@H](CC1CC1)Nc1cc(Cl)cc(Cl)c1` [Example 132, (R)—N—((R)-1-(7H-pyrrolo[2,3-d]pyrimidin-4-yl)piperidin-3-yl)-3-cyclopropyl-2-(3,5-dichlorophenylamino)propanamide] registered an IC50 of 100 to 999 nM.

`N#Cc1c(N)ncnc1N1CCC[C@@H](NC(=O)[C@H](Nc2cc(F)cc(Cl)c2)C2CC2)C1` [Example 134, (R)—N—((R)-1-(6-amino-5-cyanopyrimidin-4-yl)piperidin-3-yl)-2-(3-chloro-5-fluorophenylamino)-2-cyclopropylacetamide] yielded an IC50 of 1000 to 10000 nM.

`O=C1CCc2c(ncnc2N2CCC[C@@H](NC(=O)[C@H](Nc3cc(F)cc(Cl)c3)C3CC3)C2)N1` [Example 135, (R)-2-(3-chloro-5-fluorophenylamino)-2-cyclopropyl-N—((R)-1-(7-oxo-5,6,7,8-tetrahydropyrido[2,3-d]pyrimidin-4-yl)piperidin-3-yl)acetamide] displayed an IC50 of 100 to 999 nM.

For `Cn1ccc2c(N3CCC[C@@H](NC(=O)[C@H](Nc4cc(F)cc(Cl)c4)C4CC4)C3)ncnc21` [Example 136, (R)-2-(3-chloro-5-fluorophenylamino)-2-cyclopropyl-N—((R)-1-(7-methyl-7H-pyrrolo[2,3-d]pyrimidin-4-yl)piperidin-3-yl)acetamide], the IC50 is 100 to 999 nM.

Compound `Cn1ncc2c(N3CCC[C@@H](NC(=O)[C@H](Nc4cc(F)cc(Cl)c4)C4CC4)C3)ncnc21` [Example 137, (R)-2-(3-chloro-5-fluorophenylamino)-2-cyclopropyl-N—((R)-1-(1-methyl-1H-pyrazolo[3,4-d]pyrimidin-4-yl)piperidin-3-yl)acetamide] had a concentration for half-maximal inhibition (IC50) of 1000 to 10000 nM.

In turn, `O=C(N[C@@H]1CCCN(c2ncnc3[nH]cc(F)c23)C1)[C@H](Nc1cc(F)cc(Cl)c1)C1CC1` [Example 138, (R)-2-(3-chloro-5-fluorophenylamino)-2-cyclopropyl-N—((R)-1-(5-fluoro-7H-pyrrolo[2,3-d]pyrimidin-4-yl)piperidin-3-yl)acetamide] showed an IC50 of 100 to 999 nM.
